Strand notation (5' to 3'): a small letter for the sugar, then the base; units joined by * are phosphorothioate-linked, units joined directly phosphodiester-linked; [ ] holds rarer units or linkages, { } end groups; capitals alone tell only the bases. e = 2'-O-(2-methoxyethyl) (MOE); l = locked nucleic acid (LNA); [5mC] = 5-methylcytosine; d = 2'-deoxy (DNA)
System: human ABCB11 mRNA
Assay: ASO treatment of primary human hepatocytes (PHH), ABCB11 mRNA by RT-qPCR normalized to B2M
Format: cell-based
Conditions: primary human hepatocytes; for ABCB11 mRNA FC (5 μM ASO vs. UNT): normalized to untreated PHHs (UNT); for ABCB11 FC mRNA (5 μM ASO vs. untreated): 5 μM ASO with PO-modifications, normalized to untreated hepatocytes
Procedure: Primary human hepatocytes (PHH) were thawed using Lonza Human Cryopreserved Hepatocyte Thawing Medium and plated in 96-well collagen-coated plates (5.5-6.0×10^4 cells per well). Four hours later, the media was replaced with sterile-filtered QualGro™ Hepatocyte Culture Medium (BioIVT) containing antibiotic supplement, 0.3 mg/ml Matrigel® matrix (Corning®), and ASO at the desired concentration (e.g., 1.25 μM, 2.5 μM, 5 μM, or 10 μM). After 72 hrs., cells were harvested by aspirating media, washing once with phosphate-buffered saline (PBS), and lysed with 150 μl of Buffer RLT lysis buffer (Qiagen®). Plates were frozen at-80° C. during cell lysis. After thawing, total RNA was isolated using the Qiagen RNEasy kit as instructed by manufacturer. cDNA (random-primed) was synthesized from 10 μl of RNA using the LifeTech High Capacity cDNA Reverse Transcription kit. 2 μl of cDNA was used for reverse transcription-quantitative PCR (RT-qPCR) analyses using standard Taqman” reagents from Applied Biosystems™ to measure ABCB11 and CYP7A1 gene expression. Gene expression data was normalized to the housekeeper gene, beta-2-microglobulin (B2M).
To assess the ability of ASOs targeting ABCB11 regRNAs to modulate the expression of human ABCB11, 195 ASOs targeting the human ABCB11 regRNAs were synthesized. These initial ASOs were screened in PHHs at 5 μM to determine their efficacy in increasing human ABCB11 mRNA using quantitative PCR. This initial screen identified 10 ASOs that induced increased expression of ABCB11 mRNA by more than 1.5-fold (as compared to untreated PHHs).

Substance	ABCB11 mRNA FC (5 μM ASO vs. UNT) [fold change]	ABCB11 FC mRNA (5 μM ASO vs. untreated) [fold change]
CO-7065 (eT*e[5mC]*eT*lG*eG*eA*eA*lA*eA*eT*eA*lA*eT*eG*e[5mC]*l[5mC]*eT*eT*eT*e[5mC]; antisense)	1.262	
CO-6671 (antisense eT*eT*e[5mC]*eT*eG*eT*eA*eG*eT*eT*eT*eA*eG*eT*eT*eG*eA*e[5mC]*eT*eG)	1.163	
CO-7187: derivative ASO with additional chemical modifications based on parent ASO CO-4535 (antisense eT*eG*eG*e[5mC]*lG*dT*dT*dA*lT*dT*dA*dA*lT*dT*d[5mC]*eT*lA*e[5mC]*eA*eG)	1.544	
CO-4494 (antisense eG*e[5mC]*eA*eG*eG*eA*eT*eG*eA*eA*eG*eT*eT*eT*eA*e[5mC]*eA*eA*eG*eG)	1.12	
CO-7177 (antisense eG*eT*eG*eG*lA*dG*d[5mC]*dA*lA*dA*d[5mC]*dT*lA*dG*dG*e[5mC]*lA*e[5mC]*eT*eG)	1.455	
CO-4020 (antisense e[5mC]*eA*eT*eG*eT*eA*eT*e[5mC]*eA*eA*eT*e[5mC]*eT*e[5mC]*eT*eT*eA*eG*eA*eG)	1.201	
CO-4488 (antisense eA*eA*e[5mC]*eA*eT*eG*eT*e[5mC]*eA*eG*eA*e[5mC]*eA*eG*eT*eA*eG*eT*eT*e[5mC])	1.084	
CO-3997 (antisense eG*e[5mC]*eT*eG*eT*eG*e[5mC]*eT*e[5mC]*eT*eG*eT*eA*eA*e[5mC]*eA*e[5mC]*eT*eG*eT)	1.501	
CO-11200 (antisense eT*eG*eTeTeTeTeG*e[5mC]*eT*eT*eG*eG*eT*e[5mC]eAeAeGeA*eG*eG)		1.34
CO-7007 (antisense eG*eT*eG*eG*eA*dT*dG*dT*eA*dG*dA*dT*dG*eA*dA*dT*dG*eG*e[5mC]*eA*eA*eG)	0.963	
CO-4042 (antisense e[5mC]*eT*e[5mC]*eT*e[5mC]*eG*eT*eT*e[5mC]*e[5mC]*eA*eA*eG*eG*eT*eG*eA*eA*eT*e[5mC])	0.605	
CO-6676 (antisense eT*eA*eA*eA*eG*e[5mC]*eA*eA*eG*e[5mC]*eT*eG*eT*eG*eT*eG*eG*eA*eA*eG)	1.204	
CO-4503 (antisense eA*eT*eT*eG*eT*eA*eG*eG*eT*eG*e[5mC]eT*eG*e[5mC]*eG*eG*eG*eT*eA*eT)	1.202	
CO-7108 (eA*e[5mC]*eA*eT*eT*dT*dA*dG*eA*dG*dA*d[5mC]*dA*eA*dA*dG*dA*eA*eT*e[5mC]*eG*e[5mC]; antisense)	1.101	
CO-3996 (antisense eT*eT*eG*eT*e[5mC]*eT*e[5mC]*eT*eG*eG*eT*eT*eG*eAeA*eG*e[5mC]*e[5mC]*eT*e[5mC])	2.097	
CO-11214 (antisense eG*eT*lGeG*lA*eG*l[5mC]*eAlA*eA*l[5mC]*eT*lAeG*lG*e[5mC]*lA*e[5mC]eT*eG)		2.90
CO-7041 (antisense eG*eT*e[5mC]*eA*eA*eG*eA*eGeG*eA*eA*eA*eG*eA*eA*e[5mC]*eT*eG*eG*e[5mC])	1.15	
CO-11235 (antisense eG*eT*eG*eGlAeGe[5mC]*eA*eA*lA*e[5mC]*eT*eA*eGlGe[5mC]eA*e[5mC]*eT*eG)		1.47
CO-4507 (antisense eG*eA*eA*eG*eA*eA*eT*eG*eG*eG*eA*eG*e[5mC]*eA*eA*eT*e[5mC]*e[5mC]*eG*e[5mC])	0.992	
CO-4045 (antisense eA*e[5mC]*eT*eT*eT*eT*e[5mC]*eA*e[5mC]*eA*eA*e[5mC]*eT*eA*e[5mC]*eA*eG*eG*e[5mC]*e[5mC])	0.815	
CO-7199 (eA*eG*eG*eT*eG*eG*eA*dG*d[5mC]*dA*dA*dA*d[5mC]*dT*dA*dG*dG*e[5mC]*eA*e[5mC]*eT*eG*eA*eG; antisense)	1.166	
CO-7034 (antisense eT*eT*eA*eG*eA*eG*eA*e[5mC]*eA*eA*eA*eG*eA*eA*eT*e[5mC]*eG*e[5mC]*eT*eG)	1.097	
CO-4480 (antisense e[5mC]*e[5mC]*eT*eG*eA*eG*eA*eT*eT*eG*eA*eG*e[5mC]*eT*eA*eT*eA*e[5mC]*eT*eG)	0.931	

Substance	ABCB11 mRNA FC (5 μM ASO vs. UNT) [fold change]	ABCB11 FC mRNA (5 μM ASO vs. untreated) [fold change]
CO-4497 (antisense eG*eG*eT*eG*eT*eT*eG*eA*eG*eA*eA*e[5mC]*eT*eA*eG*eA*eA*eT*eA*eT)	1.024	
CO-4520 (antisense eG*eG*eA*eA*eG*eA*eA*eG*eG*eT*eT*eA*eG*e[5mC]*eA*e[5mC]*eA*eG*eA*e[5mC])	0.945	
CO-4031 (antisense eG*eG*e[5mC]*eT*eT*e[5mC]*e[5mC]*eT*e[5mC]*eA*eA*eA*eT*eT*e[5mC]*eA*eT*eA*eT*eT)	1.427	
CO-11242 (antisense eG*eTeG*eG*lAeG*e[5mC]*eAeA*lA*e[5mC]eT*eA*eGlG*e[5mC]*eAe[5mC]*eT*eG)		1.49
CO-3989 (antisense eA*eA*eG*eA*eT*eG*e[5mC]*eT*eA*e[5mC]*eA*eA*eT*eT*eG*e[5mC]*e[5mC]*eA*eT*eA)	1.19	
CO-4013 (antisense eT*eT*eG*eA*eA*eA*eG*e[5mC]*eT*eG*eG*eT*eT*eT*eA*eA*eT*eG*e[5mC]*eA)	1.166	
CO-11218 (antisense eG*eTlG*eG*lAeG*l[5mC]*eAlA*eA*l[5mC]eT*lA*eGlG*e[5mC]*lAe[5mC]*eT*eG)		2.86
CO-7195 (eG*eG*eT*eG*eG*eA*dG*d[5mC]*dA*dA*dA*d[5mC]*dT*dA*dG*dG*e[5mC]*eA*e[5mC]*eT*eG*eA; antisense)	1.443	
CO-7186: derivative ASO with additional chemical modifications based on parent ASO CO-4535 (antisense eT*eG*eG*l[5mC]*eG*dT*dT*lA*dT*dT*dA*lA*dT*dT*d[5mC]*lT*eA*e[5mC]*eA*eG)	1.85	
CO-7207 (eT*eT*eT*eG*eG*e[5mC]*eG*dT*dT*dA*dT*dT*dA*dA*dT*dT*d[5mC]*eT*eA*e[5mC]*eA*eG*eA*eG; antisense)	1.221	
CO-7037 (antisense e[5mC]*eT*eG*eT*eA*e[5mC]*eA*eT*eT*eT*eA*eG*eA*eG*eA*e[5mC]*eA*eA*eA*eG)	1.136	
CO-7042 (antisense e[5mC]*eT*eT*eG*eG*eT*e[5mC]*eA*eA*eG*eA*eG*eG*eA*eA*eA*eG*eA*eA*e[5mC])	1.132	
CO-4521 (antisense eG*e[5mC]*eA*eT*eT*eT*e[5mC]*eA*eG*eA*eG*e[5mC]*eA*e[5mC]*eA*eG*eA*eG*eT*eG)	1.092	
CO-7022 (antisense eT*e[5mC]*eT*eG*eG*dA*dA*dA*dA*dT*dA*dA*dT*dG*d[5mC]*e[5mC]*eT*eT*eT*e[5mC])	1.224	
CO-12753 (antisense eG*eTeG*eA*eGeG*e[5mC]*eAeT*e[5mC]*eAeG*eG*eTeA*eA*eGeT*eT*e[5mC])		1.03
CO-4514 (antisense eG*e[5mC]*eG*eG*eG*eA*eT*eT*eA*eG*eA*eT*eG*eA*eG*eG*eT*e[5mC]*eT*eA)	1.175	
CO-7093 (eA*e[5mC]*l[5mC]*e[5mC]*e[5mC]*l[5mC]*e[5mC]*eT*l[5mC]*eA*e[5mC]*l[5mC]*eT*eT*lG*eG*eT*lT*e[5mC]*e[5mC]; antisense)	1.269	
CO-4527 (antisense eG*eA*eG*e[5mC]*eA*eT*e[5mC]*eA*eG*eG*eT*eA*e[5mC]*e[5mC]*eA*eT*eG*eA*e[5mC]*eA)	0.97	
CO-7060 (eT*e[5mC]*eT*eG*lG*dA*dA*dA*lA*dT*dA*dA*lT*dG*d[5mC]*e[5mC]*lT*eT*eT*e[5mC]; antisense)	1.17	
CO-6978 (antisense eG*eA*eG*eG*e[5mC]*eA*eT*e[5mC]*eA*eG*eG*eT*eA*eA*eG*eT*eT*e[5mC]*e[5mC]*eT)	1.456	
CO-6675 (antisense eA*eG*e[5mC]*eA*eA*eG*e[5mC]*eT*eG*eT*eG*eT*eG*eG*eA*eA*eG*eG*eA*e[5mC])	1.346	
CO-6985 (antisense eT*eG*eG*eA*eT*lG*dT*dA*lG*dA*dT*lG*dA*dA*lT*eG*eG*e[5mC]*eA*eA)	1.414	

— patent US20250320496A1, “MODULATION OF ABCB11 GENE TRANSCRIPTION USING ANTISENSE OLIGONUCLEOTIDES TARGETING REGULATORY RNAS” (CAMP4 Therapeutics Corporation, priority 2022, published 2025)
